Test results published in patent US8247211B2, “Glycopeptide antibiotics” (American Cyanamid Company, priority 2001, dated 2012).
Values after ≈ are worked out from the molar mass of the structure shown.

Legend:
Enterococcus sp. = assay: In vitro antibacterial evaluation: minimum inhibitory concentration (MIC), broth dilution method; assay type: cell-based
Outline: (§1)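 Values are minimum inhibitory concentrations, meaning the smallest antibiotic concentration that stops growth of the organism. They come from broth dilution in Muller-Hinton II […] per NCCLS guidance (M7-A2), using 5×10^5 CFU/mL and concentrations from 64 to 0.06 μg/mL.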

Escherichia coli = assay: as above; assay type: cell-based
Outline: as §1

Staphylococcus sp. = assay: as above; assay type: cell-based; conditions: broth dilution, 18 hours at 35° C.
Outline: as §1

Streptococcus sp. = assay: as above; assay type: cell-based
Outline: as §1

[1] = test system: Staphylococcus aureus-SMITH (GC 4543); assay: Acute lethal infection in mice (ED50); assay type: in vivo; conditions: female CD-1 mice, intraperitoneal challenge, intravenous dose 30 min. after infection, 7 day survival ratios
Outline: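 Groups of five female CD-1 mice per dose got intravenous antibiotic in saline or 5% dextrose half an hour after intraperitoneal infection sufficient to kill controls within 24-48 hr. Seven-day survival data from three experiments were combined to derive ED50.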

[2] = broth dilution, inoculum 5×10^5 CFU/mL, 18 hours at 35° C.

CC(c1ccccc1)C1NC(=O)CNC(=O)C(CO)NC(=O)C(C(O)C2CNC(=N)N2C2OC(CO)C(O)C(O)C2O)NC(=O)C(C(O)C2CNC(=N)N2)NC(=O)C(Cc2ccc(OC3OC(CO)C(OC4OC5COC(c6cc7c(cc6Cl)OCO7)OC5C(O)C4O)C(O)C3O)cc2)NC1=O (stereo not drawn) [Example 158, Cyclo[glycyl-β-methylphenylalanyl-O-[4-O-[4,6-O-[(6-chloro-1,3-benzodioxol-5-yl)-methylene]hexopyranosyl]hexopyranosyl]tyrosyl-3-(2-iminoimidazolidin-4-yl)seryl-3-(3-hexopyranosyl-2-iminoimidazolidin-4-yl)serylseryl]]
MIC Enterococcus avium (GC 4558) (Enterococcus sp.; [2]): 4 µg/mL (≈ 2.74 µM)
MIC Enterococcus faecalis (ATCC 29212) (Enterococcus sp.; [2]): 4 µg/mL (≈ 2.74 µM)
MIC Enterococcus faecalis (GC 4552) (Enterococcus sp.; [2]): 8 µg/mL (≈ 5.47 µM)
MIC Enterococcus faecalis (GC 4553) (Enterococcus sp.; [2]): 4 µg/mL (≈ 2.74 µM)
MIC Enterococcus faecalis (GC 4554) (Enterococcus sp.; [2]): 4 µg/mL (≈ 2.74 µM)
MIC Enterococcus faecalis (GC 6189) (Enterococcus sp.; [2]): 4 µg/mL (≈ 2.74 µM)
MIC Enterococcus faecium (GC 2243) (Enterococcus sp.; [2]): 4 µg/mL (≈ 2.74 µM)
MIC Enterococcus faecium (GC 4556) (Enterococcus sp.; [2]): 8 µg/mL (≈ 5.47 µM)
MIC Enterococcus faecium (GC 4557) (Enterococcus sp.; [2]): 2 µg/mL (≈ 1.37 µM)
MIC Enterococcus faecalis (ATCC 29212) (Enterococcus sp.; strain ATCC 29212): 4 µg/mL (≈ 2.74 µM)
MIC Enterococcus faecalis (GC 2242) (Enterococcus sp.; strain GC 2242): 4 µg/mL (≈ 2.74 µM)
MIC Enterococcus faecium (GC 2243) (Enterococcus sp.; strain GC 2243): 4 µg/mL (≈ 2.74 µM)
MIC Enterococcus faecalis (GC 2691) (Enterococcus sp.; strain GC 2691): 4 µg/mL (≈ 2.74 µM)
MIC Enterococcus faecalis (GC 3059) (Enterococcus sp.; strain GC 3059): 4 µg/mL (≈ 2.74 µM)
MIC Enterococcus faecalis (GC 4552) (Enterococcus sp.; strain GC 4552): 8 µg/mL (≈ 5.47 µM)
MIC Enterococcus faecalis (GC 4553) (Enterococcus sp.; strain GC 4553): 4 µg/mL (≈ 2.74 µM)
MIC Enterococcus faecalis (GC 4554) (Enterococcus sp.; strain GC 4554): 4 µg/mL (≈ 2.74 µM)
MIC Enterococcus faecium (GC 4556) (Enterococcus sp.; strain GC 4556): 8 µg/mL (≈ 5.47 µM)
MIC Enterococcus faecium (GC 4557) (Enterococcus sp.; strain GC 4557): 2 µg/mL (≈ 1.37 µM)
MIC Enterococcus avium (GC 4558) (Enterococcus sp.; strain GC 4558): 4 µg/mL (≈ 2.74 µM)
MIC Enterococcus faecalis (GC 6189) (Enterococcus sp.; strain GC 6189): 4 µg/mL (≈ 2.74 µM)
MIC Escherichia coli (ATCC 25922) (Escherichia coli; strain ATCC 25922): 64 µg/mL (≈ 43.8 µM)
MIC Escherichia coli (GC 4559) (Escherichia coli; strain GC 4559): 64 µg/mL (≈ 43.8 µM)
MIC Escherichi coli (GC 4560) (Escherichia coli; strain GC 4560): 1 µg/mL (≈ 0.684 µM)
MIC Coagulase Negative Staphylococcus (GC 4547) (Staphylococcus sp.; 5×10^5 CFU/mL): 2 µg/mL (≈ 1.37 µM)
MIC Coagulase Negative Staphylococcus (GC 4548) (Staphylococcus sp.; 5×10^5 CFU/mL): 1 µg/mL (≈ 0.684 µM)
MIC Coagulase Negative Staphylococcus (GC 4549) (Staphylococcus sp.; 5×10^5 CFU/mL): 1 µg/mL (≈ 0.684 µM)
MIC Coagulase Negative Staphylococcus (GC 4551) (Staphylococcus sp.; 5×10^5 CFU/mL): 2 µg/mL (≈ 1.37 µM)
MIC Coagulase Negative Staphylococcus (GC 6257) (Staphylococcus sp.; 5×10^5 CFU/mL): 1 µg/mL (≈ 0.684 µM)
MIC Staphylococcus aureus (ATCC 29213) (Staphylococcus sp.; 5×10^5 CFU/mL): 2 µg/mL (≈ 1.37 µM)
MIC Staphylococcus aureus (GC 1131) (Staphylococcus sp.; 5×10^5 CFU/mL): 2 µg/mL (≈ 1.37 µM)
MIC Staphylococcus aureus (GC 3051) (Staphylococcus sp.; 5×10^5 CFU/mL): 1 µg/mL (≈ 0.684 µM)
MIC Staphylococcus aureus (GC 3053) (Staphylococcus sp.; 5×10^5 CFU/mL): 2 µg/mL (≈ 1.37 µM)
MIC Staphylococcus aureus (GC 4541) (Staphylococcus sp.; 5×10^5 CFU/mL): 1 µg/mL (≈ 0.684 µM)
MIC Staphylococcus aureus (GC 4542) (Staphylococcus sp.; 5×10^5 CFU/mL): 1 µg/mL (≈ 0.684 µM)
MIC Staphylococcus aureus (GC 4544) (Staphylococcus sp.; 5×10^5 CFU/mL): 2 µg/mL (≈ 1.37 µM)
MIC Staphylococcus aureus (GC 4545) (Staphylococcus sp.; 5×10^5 CFU/mL): 2 µg/mL (≈ 1.37 µM)
MIC Staphylococcus aureus-SMITH (GC 4543) (Staphylococcus sp.; 5×10^5 CFU/mL): 2 µg/mL (≈ 1.37 µM)
MIC Staphylococcus haemolyticus (GC 4546) (Staphylococcus sp.; 5×10^5 CFU/mL): 0.5 µg/mL (≈ 0.342 µM)
MIC Staphylococcus aureus (ATCC 29213) (Staphylococcus sp.; strain ATCC 29213): 2 µg/mL (≈ 1.37 µM)
MIC Staphylococcus aureus (GC 1131) (Staphylococcus sp.; strain GC 1131): 2 µg/mL (≈ 1.37 µM)
MIC Staphylococcus aureus (GC 3051) (Staphylococcus sp.; strain GC 3051): 1 µg/mL (≈ 0.684 µM)
MIC Staphylococcus aureus (GC 3053) (Staphylococcus sp.; strain GC 3053): 2 µg/mL (≈ 1.37 µM)
MIC Staphylococcus aureus (GC 4541) (Staphylococcus sp.; strain GC 4541): 1 µg/mL (≈ 0.684 µM)
MIC Staphylococcus aureus (GC 4542) (Staphylococcus sp.; strain GC 4542): 1 µg/mL (≈ 0.684 µM)
MIC Staphylococcus aureus-SMITH (GC 4543) (Staphylococcus sp.; strain GC 4543): 2 µg/mL (≈ 1.37 µM)
MIC Staphylococcus aureus (GC 4544) (Staphylococcus sp.; strain GC 4544): 2 µg/mL (≈ 1.37 µM)
MIC Staphylococcus aureus (GC 4545) (Staphylococcus sp.; strain GC 4545): 2 µg/mL (≈ 1.37 µM)
MIC Staphylococcus haemolyticus (GC 4546) (Staphylococcus sp.; strain GC 4546): 0.5 µg/mL (≈ 0.342 µM)
MIC Coagulase Negative Staphylococcus (GC 4547) (Staphylococcus sp.; strain GC 4547): 2 µg/mL (≈ 1.37 µM)
MIC Coagulase Negative Staphylococcus (GC 4548) (Staphylococcus sp.; strain GC 4548): 1 µg/mL (≈ 0.684 µM)
MIC Coagulase Negative Staphylococcus (GC 4549) (Staphylococcus sp.; strain GC 4549): 1 µg/mL (≈ 0.684 µM)
MIC Coagulase Negative Staphylococcus (GC 4551) (Staphylococcus sp.; strain GC 4551): 2 µg/mL (≈ 1.37 µM)
MIC Coagulase Negative Staphylococcus (GC 6257) (Staphylococcus sp.; strain GC 6257): 1 µg/mL (≈ 0.684 µM)
MIC Streptococcus pneumoniae (ATCC 6301) (Streptococcus sp.; strain ATCC 6301): 0.12 µg/mL (≈ 0.0821 µM)
MIC Streptococcus pneumoniae (GC 1894) (Streptococcus sp.; strain GC 1894): <0.06 µg/mL
MIC Streptococcus pyogenes (GC 4563) (Streptococcus sp.; strain GC 4563): 0.25 µg/mL (≈ 0.171 µM)
MIC Streptococcus agalactiae (GC 4564) (Streptococcus sp.; strain GC 4564): 0.25 µg/mL (≈ 0.171 µM)
MIC Streptococcus pneumoniae (GC 4565) (Streptococcus sp.; strain GC 4565): <0.06 µg/mL
median effective dose (ED50), Staphylococcus aureus-SMITH (GC 4543) [1]: 0.14 mg/kg
